Source: publication PMC8037336, “Metabolite Profiling and Characterization of LW6, a Novel HIF-1α Inhibitor, as an Antitumor Drug Candidate in Mice” (Molecules, 2021)
“And” between values parts separate entries of the source, which are not always exact repeats. Identical values can stand only once.

Experiment: Metabolite profiling and semi-quantitation (peak area-time AUC) of LW6 and its metabolites in mouse plasma after a single i.v. or oral dose of LW6
Assay type: in vivo, male ICR mice
Settings: for Relative % of Parent AUC0→t (i.v.): AUC0→t relative to AUC0→t of parent after i.v. administration; for Relative % of Total Metabolite AUC0→t: relative to sum of AUC0→t of all detected metabolites; for Relative AUC of metabolite versus parent AUC (i.v.): versus AUC0→t of LW6 administered intravenously; for Relative % of Parent AUC0→t (p.o.): AUC0→t relative to AUC0→t of parent after i.v. administration (5 mg/kg); for Average AUC0→t (Peak Intensity, Cps) / Average AUC0→t (Peak inTensity, cps): mouse plasma, n = 3, 0-24 h, LC-MS/MS peak intensity-time curve; for Average AUC0→t (Peak Intensity, Cps): LW6 5 mg/kg i.v.; for Average AUC0→t (Peak inTensity, cps): LW6 5 mg/kg p.o.; for Detection of metabolite in mouse plasma: LW6 5 mg/kg i.v. or p.o., pMRM-IDA-EPI, S/N > 3
Description: To determine the in vivo metabolism of LW6, male ICR mice were administered a single intravenous (i.v., 5 mg/kg) or oral dose (p.o., 5 mg/kg) of LW6. Serial blood samples (Section 4.2) were collected and metabolite identification was performed using a pMRM-IDA-EPI scan method in negative ion mode on a QTRAP.
Animal experiments were approved by the Institutional Animal Care and Use Committee of the Korea Research Institute of Bioscience and Biotechnology (Chungbuk, Korea; KRIBB-AEC-15005, 9 January 2015) and performed in compliance with the National Institutes of Health Guidelines for the care and use of laboratory animals and Korean national laws for ethical conduct in the care and use of animals and the rules of Good Laboratory Practice. Six specific pathogen-free (SPF) male ICR mice (8 weeks, 31.5–40.1 g) were purchased from Koatech Co. (Pyeongtaek, Kyonggi, Korea) and maintained in an SPF environment at 22 ± 2 °C with a 12 h light/dark cycle and relative humidity of 50 ± 10%. Food (Teklad Global rodent diet 2018S, ENVIGO, Indianapolis, IN, USA) and water were provided ad libitum, unless noted otherwise. Animals were acclimated to the testing facility for 1 week before being used in the study. The animal group for oral dosing was fasted overnight before the study and fed again 4 h after dosing. Mice were administered a single dose of the test substance intravenously via tail vein injection (n = 3, 5 mg/kg) or orally by disposable syringe with an oral zonde (n = 3, 5 mg/kg). Dosing solutions were prepared in dimethylacetamide/Cremophor EL/20% v/v (2-hydroxypropyl)-β-cyclodextrin in de-ionized water (1/1/3 v/v/v; i.v. or p.o. for LW6) and administered at a dose volume of 5 mL/kg for both i.v. and p.o. Peng et al. method was used for serial blood sampling in mice. Briefly, blood samples (~50 µL each) were collected via the saphenous vein of free alive mice at the time points including 0, 0.25, 0.5, 0.75, 1, 2, 4, 6, 8, and 24 h after oral administration or 0, 0.083, 0.167, 0.25, 0.5, 1, 2, 4, 6, 8, and 24 h after intravenous administration. These samples were collected into Microvette® capillary tubes at predetermined time points. The blood samples were centrifuged under refrigeration at 12,000× g for 3 min and then stored frozen at −20 °C until analysis.
Plasma samples were prepared for analysis by the protein precipitation method. A simple protein precipitation is to remove proteins in plasma samples with organic solvents. Briefly, 15 µL of each plasma sample was transferred to a PCR tube (Axygen, Union City, CA, USA). Four volumes of acetonitrile containing the analytical internal standard, 4-methylumbelliferone, were added, and the resulting mixture was vortexed for 10 min on a multi-tube vortexer (VWR International, Radnor, PA, USA). The samples were sonicated for 30 min at room temperature. The tubes were centrifuged at 12,000× g for 10 min, and the supernatant was analyzed for the test substance. Sample analysis was performed with a 3200 Q TRAP LC/MS/MS system (Applied Biosystems, Foster City, CA, USA) in negative MRM mode. The analytical methods are described in the following sections.
The LC-MS/MS system consisted of an Agilent 1100 series HPLC system (Agilent Technologies, Santa Clara, CA, USA) equipped with an API 3200 QTRAP hybrid triple quadrupole-linear ion trap mass spectrometer with a Turbo V^TM ion spray. All samples were analyzed on an Acquisition mode and data were processed using Analyst® software (version 1.4.2, Applied Biosystems, Foster City, CA, USA). The sample injection volume was 10 µL, and separation was performed using an Atlantis dC18 column (50 × 2.1 mm i.d., 3 µm, Waters, Milford, MA, USA) with a SecurityGuard^TM C18 guard column (2.0 × 4.0 mm i.d., Phenomenex, Torrance, CA, USA) maintained at room temperature. […]

Relative % of Parent AUC0→t (i.v.) (after LW6 5 mg/kg i.v.) [%] | Relative % of Total Metabolite AUC0→t (after LW6 5 mg/kg i.v.) | Relative % of Total Metabolite AUC0→t (after LW6 5 mg/kg i.v., listed as APA (M7)) [%] | Relative AUC of metabolite versus parent AUC (i.v.) (after LW6 5 mg/kg i.v.) | Relative % of Parent AUC0→t (p.o.) (after LW6 5 mg/kg p.o.) [%] | Relative % of Total Metabolite AUC0→t (after LW6 5 mg/kg p.o.) | Relative % of Total Metabolite AUC0→t (after LW6 5 mg/kg p.o., listed as APA (M7)) [%] | Relative AUC of metabolite versus parent AUC (i.v.) (after LW6 5 mg/kg p.o.) [fold] | Average AUC0→t (Peak Intensity, Cps) | Average AUC0→t (Peak inTensity, cps) | Relative % of Parent AUC0→t (i.v.) (after LW6 5 mg/kg i.v., 5 mg/kg) [%] | Relative % of Parent AUC0→t (p.o.) (after LW6 5 mg/kg p.o., 5 mg/kg) | Compound | Detection of metabolite in mouse plasma
1877.92 | 92.1% and 92% | 92.09 | approximately 19 fold | 1686.37 | 93.3% and 93% | 93.32 | ~17 | 19,697,150 cps | 17,688,080 cps |  |  | O=C(O)COc1ccc(C23CC4CC(CC(C4)C2)C3)cc1 [APA, 2-(4-((3r,5r,7r)-adamantan-1-yl)phenoxy)acetic acid] | 
 |  |  |  |  |  |  |  | 1,048,883 cps | 28,735 cps | 100 | 2.7% and 2.74% | COC(=O)c1ccc(O)c(NC(=O)COc2ccc(C34CC5CC(CC(C5)C3)C4)cc2)c1 [LW6] | 
0.73 | 0.04% |  |  |  |  |  |  | 7672 cps |  |  |  | O=C(COc1ccc(C23CC4CC(CC(C4)C2)C3)cc1)Nc1cc(C(=O)O)ccc1O [M9] | only detected in plasma samples obtained from intravenous dosing
2.99 | 0.15% |  |  |  |  |  |  | 31,345 cps |  |  |  | Oc1ccc(C23CC4CC(CC(C4)C2)C3)cc1 [M12] | only detected in plasma samples obtained from intravenous dosing
